What was measured:
[1] = system: methicillin resistant S. aureus Mu50 strain (S. aureus ATCC700699) biofilm; assay: Biofilm susceptibility to vancomycin, pre-treatment regimen (biofilm formed in presence of compound, then vancomycin); assay type: cell-based; conditions: for Pretreat (100 μM): percentage Colony Forming Units (CFU's) per biofilm: compound 100 μM during biofilm formation, then VAN 20 μg/ml, compared to the untreated (negative) control; for EC50: concentration needed to get 50% killing compared to antibiotic alone (VAN 20 μg/ml) and complete killing, read-out: Pretreat. (EC50)
Procedure: (§1) The compounds were evaluated for their effect on biofilm susceptibility both under pre-treatment and combination treatment regimens. In the pre-treatment regimen, a methicillin resistant S. aureus Mu50 strain (S. aureus ATCC700699) was allowed to form biofilms in the presence of the compounds after which the biofilm was treated with vancomycin (20 μg/ml). In the combination treatment regimen, S. aureus Mu50 was allowed to form a mature biofilm after which it was treated with a combination of a compound and vancomycin. In brief, 100 μl of a standardized inoculum (10^8 CFU/ml) was placed in the wells of a round-bottom 96-well microtiter plate. The cells were allowed to adhere to the plate in the absence (combined treatment) or presence (pre-treatment) of the compounds (0.1-250 μM) for 4 h at 37° C. After this adhesion step, non-adhered cells were removed, the wells were rinsed and fresh medium with or without the compounds was added. The plates were incubated for an additional 20 h at 37° C. After this, the medium was removed, biofilms were rinsed with physiological saline and vancomycin (20 μg/ml) was added alone (pre-treatment) or with the compounds (combined treatment, 0.1-250 μM). Plates were placed at 37° C. for 24 h after which medium was removed, wells were rinsed and the surviving cells in each condition were collected. The number of surviving cells under each condition was compared to vancomycin treatment alone and was assessed by conventional plating. The REF compound (hamamelitannin) was also observed for its effect on biofilm susceptibility towards other antibiotics (incl. vancomycin, cefoxitin, tobramycin, cefazolin, cefalonium, daptomycin, linezolide and cephalexin). Biofilms were formed as described above and were treated with the antibiotics alone or in combination with the REF compound (250 μM). The number of surviving cells under each condition was compared to the untreated control biofilm and was assessed by conventional plating.

[2] = system: methicillin resistant S. aureus Mu50 strain (S. aureus ATCC700699) biofilm; assay: Biofilm susceptibility to vancomycin, combination treatment regimen (mature biofilm treated with compound plus vancomycin); assay type: cell-based; conditions: for Combin. (100 μM): percentage Colony Forming Units (CFU's) per biofilm: compound 100 μM together with VAN 20 μg/ml on mature biofilm, compared to the untreated (negative) control; for EC50: concentration needed to get 50% killing compared to antibiotic alone (VAN 20 μg/ml) and complete killing, read-out: Combin. (EC50)
Procedure: as §1

Row | SMILES | Pretreat (100 μM): percentage Colony Forming Units (CFU's) per biofilm [1] [percentage] | Combin. (100 μM): percentage Colony Forming Units (CFU's) per biofilm [2] [percentage] | EC50 [1] [µM] | EC50 [2] [µM]
1 | N#Cc1cccc(C(=O)NC[C@H]2OC[C@@](O)(CNC(=O)c3ccccc3)[C@@H]2O)c1 [compound 164, N-(((2R,3R,4S)-4-(benzamidomethyl)-3,4-dihydroxytetrahydrofuran-2-yl)methyl)-3-cyanobenzamide] | 22.11 | 14.49 | – | –
2 | CN(C)c1cccc(C(=O)NC[C@H]2OC[C@@](O)(CNC(=O)c3ccccc3)[C@@H]2O)c1 [compound 165, N-(((2R,3R,4S)-4-(benzamidomethyl)-3,4-dihydroxytetrahydrofuran-2-yl)methyl)-3-(dimethylamino)benzamide] | 16.00 | 26.43 | – | –
3 | O=C(NC[C@H]1OC[C@@](O)(CNC(=O)c2ccccc2)[C@@H]1O)c1cccc(C(F)(F)F)c1 [compound 166, N-(((2R,3R,4S)-4-(benzamidomethyl)-3,4-dihydroxytetrahydrofuran-2-yl)methyl)-3-(trifluoromethyl)benzamide] | 10.16 | 12.34 | 9.13 | 12.3
4 | O=C(NC[C@H]1OC[C@@](O)(CNC(=O)c2ccccc2)[C@@H]1O)c1cccnc1 [compound 167, N-(((2R,3R,4S)-4-(benzamidomethyl)-3,4-dihydroxytetrahydrofuran-2-yl)methyl)nicotinamide] | 9.813 | 15.22 | – | –
5 | O=C(NC[C@H]1OC[C@@](O)(CNC(=O)c2ccccc2)[C@@H]1O)c1cccc(-c2ccccc2)c1 [compound 168, N-(((2R,3R,4S)-4-(benzamidomethyl)-3,4-dihydroxytetrahydrofuran-2-yl)methyl)-[1,1′-biphenyl]-3-carboxamide] | 9.830 | 32.61 | – | –
6 | Cc1ccccc1C(=O)NC[C@H]1OC[C@@](O)(CNC(=O)c2ccccc2)[C@@H]1O [compound 169, N-(((2R,3R,4S)-4-(benzamidomethyl)-3,4-dihydroxytetrahydrofuran-2-yl)methyl)-2-methylbenzamide] | 11.68 | 13.87 | 13.7 | 52.6
7 | O=C(NC[C@]1(O)CO[C@H](CNC(=O)c2ccccc2F)[C@H]1O)c1ccccc1 [compound 170, N-(((2R,3R,4S)-4-(benzamidomethyl)-3,4-dihydroxytetrahydrofuran-2-yl)methyl)-2-fluorobenzamide] | 11.84 | 16.30 | – | –
8 | O=C(NC[C@]1(O)CO[C@H](CNC(=O)c2ccccc2Cl)[C@H]1O)c1ccccc1 [compound 171, N-(((2R,3R,4S)-4-(benzamidomethyl)-3,4-dihydroxytetrahydrofuran-2-yl)methyl)-2-chlorobenzamide] | 11.56 | 7.776 | 0.389 | 7.98
9 | COc1ccccc1C(=O)NC[C@H]1OC[C@@](O)(CNC(=O)c2ccccc2)[C@@H]1O [compound 172, N-(((2R,3R,4S)-4-(benzamidomethyl)-3,4-dihydroxytetrahydrofuran-2-yl)methyl)-2-methoxybenzamide] | 15.37 | 31.40 | – | –
10 | O=C(NC[C@]1(O)CO[C@H](CN2C(=O)c3ccccc3C2=O)[C@H]1O)c1ccccc1 [compound 173, N-(((3S,4R,5R)-5-((1,3-dioxoisoindolin-2-yl)methyl)-3,4-dihydroxytetrahydrofuran-3-yl)methyl)benzamide] | 11.18 | 8.805 | 5.01 | 8.3
11 | CN(C)c1ccccc1C(=O)NC[C@H]1OC[C@@](O)(CNC(=O)c2ccccc2)[C@@H]1O [compound 174, N-(((2R,3R,4S)-4-(benzamidomethyl)-3,4-dihydroxytetrahydrofuran-2-yl)methyl)-2-(dimethylamino)benzamide] | 28.01 | 11.11 | – | –
12 | O=C(NC[C@]1(O)CO[C@H](CNC(=O)c2ccccc2C(F)(F)F)[C@H]1O)c1ccccc1 [compound 175, N-(((2R,3R,4S)-4-(benzamidomethyl)-3,4-dihydroxytetrahydrofuran-2-yl)methyl)-2-(trifluoromethyl)benzamide] | 22.48 | 34.85 | – | –
13 | O=C(NC[C@]1(O)CO[C@H](CNC(=O)c2ccccn2)[C@H]1O)c1ccccc1 [compound 176, N-(((2R,3R,4S)-4-(benzamidomethyl)-3,4-dihydroxytetrahydrofuran-2-yl)methyl)picolinamide] | 21.56 | 36.02 | – | –
14 | O=C(NC[C@]1(O)CO[C@H](CNC(=O)c2ccccc2-c2ccccc2)[C@H]1O)c1ccccc1 [compound 177, N-(((2R,3R,4S)-4-(benzamidomethyl)-3,4-dihydroxytetrahydrofuran-2-yl)methyl)-[1,1′-biphenyl]-2-carboxamide] | 15.07 | 13.23 | – | –
15 | O=C(NC[C@]1(O)CO[C@H](CNC(=O)c2ccccc2Br)[C@H]1O)c1ccccc1 [compound 178, N-(((2R,3R,4S)-4-(benzamidomethyl)-3,4-dihydroxytetrahydrofuran-2-yl)methyl)-2-bromobenzamide] | 4.10 | 17.51 | 9.85 | 19.7
16 | O=C(NC[C@]1(O)CO[C@H](CNC(=O)c2ccccc2I)[C@H]1O)c1ccccc1 [compound 179, N-(((2R,3R,4S)-4-(benzamidomethyl)-3,4-dihydroxytetrahydrofuran-2-yl)methyl)-2-iodobenzamide] | 3.84 | 16.46 | 1.85 | 20.4
17 | Cc1ccc(C(=O)NC[C@H]2OC[C@@](O)(CNC(=O)c3ccccc3)[C@@H]2O)cc1C [compound 180, N-(((2R,3R,4S)-4-(benzamidomethyl)-3,4-dihydroxytetrahydrofuran-2-yl)methyl)-3,4-dimethylbenzamide] | 79.13 | 65.66 | – | –
18 | O=C(NC[C@H]1OC[C@@](O)(CNC(=O)c2ccccc2)[C@@H]1O)c1ccc(F)c(F)c1 [compound 181, N-(((2R,3R,4S)-4-(benzamidomethyl)-3,4-dihydroxytetrahydrofuran-2-yl)methyl)-3,4-difluorobenzamide] | 67.74 | 59.09 | – | –
19 | O=C(NC[C@H]1OC[C@@](O)(CNC(=O)c2ccccc2)[C@@H]1O)c1ccc(Cl)c(Cl)c1 [compound 182, N-(((2R,3R,4S)-4-(benzamidomethyl)-3,4-dihydroxytetrahydrofuran-2-yl)methyl)-3,4-dichlorobenzamide] | 42.13 | 33.81 | – | –
20 | COc1ccc(C(=O)NC[C@H]2OC[C@@](O)(CNC(=O)c3ccccc3)[C@@H]2O)cc1OC [compound 183, N-(((2R,3R,4S)-4-(benzamidomethyl)-3,4-dihydroxytetrahydrofuran-2-yl)methyl)-3,4-dimethoxybenzamide] | 60.04 | 61.60 | – | –
21 | O=C(NC[C@]1(O)CO[C@H](CNC(=O)c2cccc3ccccc23)[C@H]1O)c1ccccc1 [compound 184, N-(((2R,3R,4S)-4-(benzamidomethyl)-3,4-dihydroxytetrahydrofuran-2-yl)methyl)-1-naphthamide] | 33.91 | 40.23 | – | –
